Entries after “also recorded” stand apart in the source; their conditions may differ. Like-named read-outs stand apart in the source and are kept apart here.
How the values were obtained:
[1] = test system: atopic disease model induced by 2,4-dinitro-fluorobenzene; conditions: cited from earlier work; for activity in atopic disease model: oral administration, ingredients isolated from oolong tea
[2] = test system: intestinal polyp formation induced by azoxymethane (AOM); conditions: 2.5 mg/kg, same dosage as indomethacin; cited from earlier work
[3] = Water solubility; assay type: physicochemical
Excerpt: Considering the fact that sulfation has been correlated with mechanism of detoxification elimination in metabolism, the presence of precursors of chafuroside which are sulfated derivatives in tea leaves has great significance. As for isovitexin and vitexin, their anticancer effect, effect of reducing damages by UV irradiation, inhibiting effect of COX, antioxidant effect, antianxiety effect and the like have been drawing the attention recently.
(§1) In the result, the production of chafurosides A and B by heating was detected only in all of the extracts and their aqueous fractions.

[4] = Liquid-liquid partition with water and n-BuOH; assay type: physicochemical; conditions: qualitative
Method: 1 g of oolong tea leaves prepared from Shizu 7132 was ground and was subjected to extract with MeOH, 50%-MeOH and water (1 ml) under reflux. After concentrating, drying and solidifying the extract liquid under reduced pressure, it was suspended in water (0.4 ml) and then was extracted with n-BuOH (4 ml and 1 ml). All of the extracts, their aqueous fractions and n-BuOH fractions obtained by liquid-liquid partition thereof were heated at 160° C. for 40 minutes.
as §1

| solubility in water [3] | SMILES | activity in atopic disease model [1] | solubility in water ([3]; qualitative) | fraction after liquid-liquid partition water / n-butanol [4] | other results |
| --- | --- | --- | --- | --- | --- |
| – | O=c1cc(-c2ccc(O)cc2)oc2cc3c(c(O)c12)[C@@H]1O[C@H](CO)[C@@H](O)[C@H](O)[C@@H]1O3 [chafuroside A] | exhibiting activities via oral administration | – | – | dermal inflammation-inhibiting activity ([1]; 10 μg/kg, comparable with Prednisolone (10 mg/kg) and Betamethasone (0.8 mg/kg)): significant dermal inflammation-inhibiting activity; inhibiting activity against intestinal polyp formation [2]: effectively-inhibiting activity |
| – | O=c1cc(-c2ccc(O)cc2)oc2c3c(cc(O)c12)O[C@H]1[C@@H](O)[C@H](O)[C@@H](CO)O[C@@H]31 [chafuroside B] | exhibiting activities via oral administration | – | – | – |
| – | O=c1cc(-c2ccc(O)cc2)oc2cc(O)c([C@@H]3O[C@H](CO)[C@@H](O)[C@H](O)[C@H]3O)c(O)c12 [isovitexin] | – | very poorly soluble in water | move to the n-butanol solvent fraction | fraction after liquid-liquid partition water / n-butanol ([4]; listed as Isovitexin): move to n-BuOH fractions |
| high water solubility | O=c1cc(-c2ccc(O)cc2)oc2cc(O)c([C@@H]3O[C@H](CO)[C@@H](O)[C@H](O)[C@H]3OS(=O)(=O)O)c(O)c12 [prechafuroside A, isovitexin 2″-O-sulfate] | – | – | – | – |
| high water solubility | O=c1cc(-c2ccc(O)cc2)oc2c([C@@H]3O[C@H](CO)[C@@H](O)[C@H](O)[C@H]3OS(=O)(=O)O)c(O)cc(O)c12 [prechafuroside B, vitexin 2″-O-sulfate] | – | – | – | – |
| – | O=c1cc(-c2ccc(O)cc2)oc2c([C@@H]3O[C@H](CO)[C@@H](O)[C@H](O)[C@H]3O)c(O)cc(O)c12 [vitexin] | – | very poorly soluble in water | move to n-BuOH fractions; also recorded: move to the n-butanol solvent fraction | – |
